Experiments:
[1] = Unbound drug concentration in Sprague-Dawley rat brain at 0.2 mg/kg, iv and measured upto 24 hrs by LC-MS/MS analysis; assay type: ADME, organism-based
[2] = Solubility of compound intestinal fluid assessed as AUC administered as active pharmaceutical ingredient (API) formulation; assay type: ADME

fraction unbound at 24 h [1]: > 0.001
AUC [2]: 25300 ng·h/mL
Structure (SMILES): FC(F)(F)c1nccc2cc(Nc3n[nH]c4ncccc34)ccc12
